Measurements from ChEMBL document CHEMBL1914348, “Discovery of pyrazoles as novel FPR1 antagonists” (Bioorg Med Chem Lett, 2011).
One block for each compound: values may come before it. The source made the active and inactive calls. No cut-off for these calls is given here.

Assays:
fMet-Leu-Phe receptor [1] = target: T1, fMet-Leu-Phe receptor (Homo sapiens, UniProt P21462); assay: Antagonist activity at human FPR1 in human neutrophils assessed as inhibition of fMLF-stimulated intracellular calcium mobilisation by FLIPR assay; format: functional, cell-based
T1 sequence (P21462 whole entry): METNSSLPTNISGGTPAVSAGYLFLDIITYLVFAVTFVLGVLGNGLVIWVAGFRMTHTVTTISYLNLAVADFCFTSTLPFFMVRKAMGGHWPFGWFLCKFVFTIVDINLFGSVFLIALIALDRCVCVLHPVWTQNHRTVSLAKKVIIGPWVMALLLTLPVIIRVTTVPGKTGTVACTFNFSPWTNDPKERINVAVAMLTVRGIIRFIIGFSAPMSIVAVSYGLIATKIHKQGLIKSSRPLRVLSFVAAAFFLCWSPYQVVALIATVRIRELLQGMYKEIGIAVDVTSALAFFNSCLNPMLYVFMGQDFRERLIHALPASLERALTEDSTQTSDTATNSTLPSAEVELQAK

[2] = target: T2, fMet-Leu-Phe receptor (Homo sapiens) (UniProt P21462); assay: Antagonist activity at human FPR1 in human neutrophils assessed as inhibition of fMLF-stimulated intracellular calcium mobilisation at 50 uM by FLIPR assay; format: functional, cell-based
T2 sequence (whole entry): T1 sequence (P21462 whole entry)

[3] = Lipophilicity, log D of the compound; format: physicochemical; settings: octanol/water
[4] = Intrinsic clearance in Sprague-Dawley rat hepatocytes assessed per 10 '6 cells; format: ADME, cell-based, Liver, Hepatocyte
[5] = Intrinsic clearance in Sprague-Dawley rat microsomes; format: ADME, Microsome
[6] = target: T3, fMet-Leu-Phe receptor (Mus musculus) (UniProt P33766); assay: Inhibition of mouse FPR1
T3 sequence (whole entry): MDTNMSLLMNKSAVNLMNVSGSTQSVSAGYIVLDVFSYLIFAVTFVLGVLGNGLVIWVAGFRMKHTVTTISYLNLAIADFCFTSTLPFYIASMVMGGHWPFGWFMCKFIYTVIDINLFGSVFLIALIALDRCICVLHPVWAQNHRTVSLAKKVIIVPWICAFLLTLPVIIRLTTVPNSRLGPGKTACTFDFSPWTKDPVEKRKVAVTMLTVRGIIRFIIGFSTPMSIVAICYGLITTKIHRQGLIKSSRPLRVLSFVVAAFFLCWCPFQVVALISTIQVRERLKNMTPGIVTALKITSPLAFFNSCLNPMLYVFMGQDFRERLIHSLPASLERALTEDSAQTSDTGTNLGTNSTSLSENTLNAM

Cytochrome P450 3A4 = Cytochrome P450 3A4 (Homo sapiens, UniProt P08684); assay: Inhibition of CYP3A4; format: ADME
Rattus norvegicus = organism: Rattus norvegicus; assay: Inhibition of rat FPR1
fMet-Leu-Phe receptor [7] = target: T1, fMet-Leu-Phe receptor; assay: Antagonist activity at FPR1 in whole blood assessed as CD11 level; format: functional, tissue-based; settings: read-out: pA2 (converted)
Cavia porcellus = organism: Cavia porcellus; assay: Inhibition of guinea pig FPR1
Cytochrome P450 1A2 = target: T4, Cytochrome P450 1A2 (Homo sapiens, UniProt P05177); assay: Inhibition of CYP1A2; format: ADME
T4 sequence (P05177 whole entry): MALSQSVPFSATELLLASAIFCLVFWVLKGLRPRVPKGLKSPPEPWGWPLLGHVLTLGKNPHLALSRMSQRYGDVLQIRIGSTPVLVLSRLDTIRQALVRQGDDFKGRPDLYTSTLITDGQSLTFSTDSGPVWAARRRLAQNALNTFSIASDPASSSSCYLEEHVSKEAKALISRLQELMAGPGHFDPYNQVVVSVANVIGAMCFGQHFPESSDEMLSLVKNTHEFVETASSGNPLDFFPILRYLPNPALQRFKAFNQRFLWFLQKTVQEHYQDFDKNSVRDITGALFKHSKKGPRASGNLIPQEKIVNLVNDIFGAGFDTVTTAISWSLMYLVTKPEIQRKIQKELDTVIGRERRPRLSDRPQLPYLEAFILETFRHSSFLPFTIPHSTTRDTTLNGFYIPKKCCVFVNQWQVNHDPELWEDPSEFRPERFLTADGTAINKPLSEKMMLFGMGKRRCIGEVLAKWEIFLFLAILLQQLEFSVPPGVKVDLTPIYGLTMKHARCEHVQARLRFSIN

Cytochrome P450 2C9 = Cytochrome P450 2C9 (Homo sapiens, UniProt P11712); assay: Inhibition of CYP2C9; format: ADME
[8] = Intrinsic clearance in human hepatocytes assessed per 10 '6 cells; format: ADME, cell-based, Liver, Hepatocyte
Cytochrome P450 2C19 = Cytochrome P450 2C19 (Homo sapiens, UniProt P33261); assay: Inhibition of CYP2C19; format: ADME
[9] = Fraction unbound in human; format: ADME, organism-based; settings: in vivo
[10] = Fraction unbound in rat; format: ADME, organism-based; settings: in vivo
[11] = Intrinsic clearance in human microsomes; format: ADME, Microsome
[12] = Solubility of the compound; format: physicochemical
Cytochrome P450 2D6 = Cytochrome P450 2D6 (Homo sapiens, UniProt P10635); assay: Inhibition of CYP2D6; format: ADME
[13] = Chemical stability of the compound assessed as half life; format: physicochemical

Chain of Cytochrome P450 2C9 (P11712 whole entry): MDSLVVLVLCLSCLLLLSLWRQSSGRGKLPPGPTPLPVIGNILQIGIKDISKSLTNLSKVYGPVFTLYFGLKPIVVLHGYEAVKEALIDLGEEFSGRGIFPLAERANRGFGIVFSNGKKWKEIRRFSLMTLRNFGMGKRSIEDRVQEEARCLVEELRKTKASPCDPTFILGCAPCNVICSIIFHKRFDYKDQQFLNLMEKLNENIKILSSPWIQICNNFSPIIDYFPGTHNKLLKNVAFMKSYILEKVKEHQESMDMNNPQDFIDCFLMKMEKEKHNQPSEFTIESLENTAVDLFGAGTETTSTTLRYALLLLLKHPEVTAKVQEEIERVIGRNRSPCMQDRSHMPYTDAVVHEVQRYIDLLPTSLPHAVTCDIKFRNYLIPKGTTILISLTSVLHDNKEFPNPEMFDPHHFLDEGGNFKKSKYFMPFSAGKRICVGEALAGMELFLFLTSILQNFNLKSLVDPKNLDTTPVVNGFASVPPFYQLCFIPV
Chain of Cytochrome P450 2D6 (P10635 whole entry): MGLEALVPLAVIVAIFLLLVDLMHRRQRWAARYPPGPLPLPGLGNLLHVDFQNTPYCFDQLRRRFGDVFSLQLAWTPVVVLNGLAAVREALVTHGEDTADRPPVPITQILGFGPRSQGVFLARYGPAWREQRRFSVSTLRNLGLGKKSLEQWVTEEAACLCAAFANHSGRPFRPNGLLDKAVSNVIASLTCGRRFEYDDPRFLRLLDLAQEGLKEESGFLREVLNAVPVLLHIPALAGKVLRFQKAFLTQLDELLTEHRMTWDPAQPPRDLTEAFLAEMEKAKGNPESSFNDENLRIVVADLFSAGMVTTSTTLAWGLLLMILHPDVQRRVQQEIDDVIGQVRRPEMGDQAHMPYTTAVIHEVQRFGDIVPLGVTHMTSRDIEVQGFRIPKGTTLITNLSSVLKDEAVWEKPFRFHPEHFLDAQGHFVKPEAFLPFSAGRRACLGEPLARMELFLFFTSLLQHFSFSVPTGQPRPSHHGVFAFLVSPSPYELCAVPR
Chain of Cytochrome P450 3A4 (P08684 whole entry): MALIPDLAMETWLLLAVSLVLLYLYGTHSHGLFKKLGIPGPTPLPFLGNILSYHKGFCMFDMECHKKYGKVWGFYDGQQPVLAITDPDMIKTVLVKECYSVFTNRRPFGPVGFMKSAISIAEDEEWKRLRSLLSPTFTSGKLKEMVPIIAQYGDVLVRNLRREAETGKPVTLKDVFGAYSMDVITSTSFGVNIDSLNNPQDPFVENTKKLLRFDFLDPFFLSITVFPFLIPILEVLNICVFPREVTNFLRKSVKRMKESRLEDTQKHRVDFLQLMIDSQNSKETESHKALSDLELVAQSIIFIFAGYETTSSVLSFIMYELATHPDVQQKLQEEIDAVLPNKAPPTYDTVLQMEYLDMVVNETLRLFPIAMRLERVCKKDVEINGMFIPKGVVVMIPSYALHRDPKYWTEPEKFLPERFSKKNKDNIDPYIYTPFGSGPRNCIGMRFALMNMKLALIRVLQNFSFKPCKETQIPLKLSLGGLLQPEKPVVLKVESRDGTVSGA
Chain of Cytochrome P450 2C19 (P33261 whole entry): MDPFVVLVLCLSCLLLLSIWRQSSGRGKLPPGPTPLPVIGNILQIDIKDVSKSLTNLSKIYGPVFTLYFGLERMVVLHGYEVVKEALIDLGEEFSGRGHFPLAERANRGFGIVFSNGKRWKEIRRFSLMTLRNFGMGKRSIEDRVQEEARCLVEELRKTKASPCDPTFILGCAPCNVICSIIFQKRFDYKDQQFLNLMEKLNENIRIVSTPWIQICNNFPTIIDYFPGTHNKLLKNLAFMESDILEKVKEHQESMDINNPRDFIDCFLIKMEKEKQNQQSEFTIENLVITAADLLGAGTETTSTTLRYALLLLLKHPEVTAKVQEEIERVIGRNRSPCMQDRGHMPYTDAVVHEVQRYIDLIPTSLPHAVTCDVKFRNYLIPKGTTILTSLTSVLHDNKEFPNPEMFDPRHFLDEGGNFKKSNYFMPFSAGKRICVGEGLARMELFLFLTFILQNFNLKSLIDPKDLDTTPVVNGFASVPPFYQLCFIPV

- IC50 (fMet-Leu-Phe receptor [1]): 3.98 µM
SMILES: Cc1ccc(S(=O)(=O)Nc2c(C(=O)NC3CCCCC3)cnn2-c2ccccc2)cc1

- IC50 (fMet-Leu-Phe receptor [1]): 0.501 µM
SMILES: CCC(CC)NC(=O)c1c(C)nn(-c2ccccc2)c1NS(=O)(=O)c1ccc(C)cc1

- IC50 (fMet-Leu-Phe receptor [1]): 6.31 µM
SMILES: Cc1ccc(S(=O)(=O)Nc2c(C(=O)NC(C)C)c(C)nn2-c2ccccc2)cc1

- IC50 (fMet-Leu-Phe receptor [1]): 6.31 µM
SMILES: CCC(CC)NC(=O)c1cnn(-c2ccccc2)c1NS(=O)(=O)c1ccccc1C

- IC50 (fMet-Leu-Phe receptor [1]): 10 µM
SMILES: CCC(CC)NC(=O)c1cnn(C(C)C)c1NS(=O)(=O)c1ccc(C)cc1

- IC50 (fMet-Leu-Phe receptor [1]): 0.158 µM
SMILES: CCC(C)NC(=O)c1c(C)nn(-c2ccccc2)c1NS(=O)(=O)c1ccc(C)cc1 (stereo not drawn)

- IC50 (fMet-Leu-Phe receptor [1]): 15.8 µM
SMILES: CCC(CC)NC(=O)c1cnn(-c2ccc(C#N)cc2)c1NS(=O)(=O)c1ccc(C)cc1

- inhibition [2]: < 25%
SMILES: Cc1ccc(S(=O)(=O)Nc2c(C(=O)NC3CCN(C)CC3)cnn2-c2ccccc2)cc1

- inhibition [2]: < 25%
SMILES: CCC(CC)NC(=O)c1cnn(C)c1NS(=O)(=O)c1ccc(C)cc1

- IC50 (fMet-Leu-Phe receptor [1]): 20 µM
SMILES: CCC(CC)NC(=O)c1cnn(-c2ccccn2)c1NS(=O)(=O)c1ccc(C)cc1

- IC50 (fMet-Leu-Phe receptor [1]): 5.01 µM
SMILES: CCC(CC)NC(=O)c1cnn(Cc2ccccc2)c1NS(=O)(=O)c1ccc(C)cc1

The next lines start with the compound.

SMILES: Cc1nn(-c2ccccc2)c(NS(=O)(=O)C2CCCCC2)c1C(=O)N[C@@H](C)C(C)(C)C
- IC50 (fMet-Leu-Phe receptor [1]): 1 µM

SMILES: Cc1nn(-c2ccccc2)c(NS(=O)(=O)c2cccc(CN3CCOCC3)c2)c1C(=O)N[C@@H](C)C(C)(C)C
- inhibition [2]: < 25%

SMILES: Cc1ccc(S(=O)(=O)Nc2c(C(=O)NC3CCCCC3)c(C)nn2-c2ccccc2)cc1
- IC50 (fMet-Leu-Phe receptor [1]): 0.794 µM

SMILES: Cc1ccc(S(=O)(=O)Nc2c(C(=O)NC3CCOCC3)c(C)nn2-c2ccccc2)cc1
- IC50 (fMet-Leu-Phe receptor [1]): 5.01 µM

SMILES: Cc1ccc(S(=O)(=O)Nc2c(C(=O)NCC(C)(C)C)c(C)nn2-c2ccccc2)cc1
- IC50 (fMet-Leu-Phe receptor [1]): 2 µM

SMILES: Cc1nn(-c2ccc(F)cc2)c(NS(=O)(=O)c2ccc(C#N)cc2)c1C(=O)N[C@@H](C)C(C)(C)C
- logD [3]: 0.5
- hepatocyte CLint [4]: 4 µL/min/1e6 cells
- microsomal CLint [5]: 13 µL/min/mg
- inhibition [6]: inactive
- IC50 (Cytochrome P450 3A4): > 10 µM
- IC50 (fMet-Leu-Phe receptor [1]): 0.0251 µM
- inhibition (Rattus norvegicus): inactive
- Kb (fMet-Leu-Phe receptor [7]): 0.126 µM
- inhibition (Cavia porcellus): inactive
- IC50 (Cytochrome P450 1A2): > 10 µM
- IC50 (Cytochrome P450 2C9): > 10 µM
- hepatocyte CLint [8]: < 3 µL/min/1e6 cells
- IC50 (Cytochrome P450 2C19): > 10 µM
- fraction unbound [9]: 0.06
- fraction unbound [10]: 0.1
- microsomal CLint [11]: 5 µL/min/mg
- solubility [12]: > 1000 µM
- IC50 (Cytochrome P450 2D6): > 10 µM
- half-life [13]: > 41.7 days

SMILES: Cc1ccc(S(=O)(=O)Nc2c(C(=O)N[C@H](C)C(C)(C)C)c(C)nn2-c2ccccc2)cc1
- IC50 (fMet-Leu-Phe receptor [1]): 0.501 µM

SMILES: Cc1ccc(S(=O)(=O)Nc2c(C(=O)NCc3ccccc3)cnn2-c2ccccc2)cc1
- IC50 (fMet-Leu-Phe receptor [1]): 10 µM

SMILES: Cc1ccc(S(=O)(=O)Nc2c(C(=O)N(C)C3CCCCC3)cnn2-c2ccccc2)cc1
- IC50 (fMet-Leu-Phe receptor [1]): 1.58 µM
